“And” between values parts separate entries of the source, which are not always exact repeats. Equal values may be shown once.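 Test compounds were applied to cells in 96-well plates for 48 hours at 5 doses. GI50 is the concentration that inhibits growth by half. TGI: concentration producing complete growth inhibition.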
Legend:
Experiment in all cases: growth of human tumour cells (NCI), 48 h
SF-268 CNS = tested on: SF-268 CNS
SK-MEL-28 melanoma = tested on: SK-MEL-28 melanoma
LOX IMVI melanoma = tested on: LOX IMVI melanoma
M14 melanoma = tested on: M14 melanoma
UACC-257 melanoma = tested on: UACC-257 melanoma
DU-145 prostate = tested on: DU-145 prostate
HCT-116 colon = tested on: HCT-116 colon
SF-539 CNS = tested on: SF-539 CNS
K-562 leukemia = tested on: K-562 leukemia
HL-60(TB) leukemia = tested on: HL-60(TB) leukemia

| Compound | GI50 (SF-268 CNS) [µM] | TGI (SF-268 CNS) [µM] | GI50 (SK-MEL-28 melanoma) [µM] | TGI (SK-MEL-28 melanoma) [µM] | GI50 (LOX IMVI melanoma) [µM] | TGI (LOX IMVI melanoma) [µM] | GI50 (M14 melanoma) | TGI (M14 melanoma) [µM] | GI50 (UACC-257 melanoma) [µM] | TGI (UACC-257 melanoma) [µM] | GI50 (DU-145 prostate) | TGI (DU-145 prostate) [µM] | GI50 (HCT-116 colon) [µM] | TGI (HCT-116 colon) [µM] | GI50 (SF-539 CNS) [µM] | TGI (SF-539 CNS) [µM] | TGI (K-562 leukemia) [µM] | TGI (HL-60(TB) leukemia) | GI50 (K-562 leukemia) [µM] | GI50 (HL-60(TB) leukemia) [µM] |
| --- | --- | --- | --- | --- | --- | --- | --- | --- | --- | --- | --- | --- | --- | --- | --- | --- | --- | --- | --- | --- |
| O=C(Nc1ccncc1)C(=O)c1cn(S(=O)(=O)c2ccc(F)cc2)c2ccccc12 | 4.4 | > 100 | 6.82 | 36.2 | 2.22 | > 100 | 1.78 µM | > 100 | 11.7 | > 100 | 3.37 µM | 20.4 | 0.781 | 34.1 | 2.1 | 53.7 | – | – | – | – |
| CCOc1ccc(NC(=O)C(=O)CC(=O)c2c(C)n([O-])c3ccccc3[n+]2=O)cc1 | – | > 100 | – | > 100 | – | > 100 | – | > 100 | – | > 100 | – | – | – | > 100 | – | > 100 | > 100 | > 100 µM | – | – |
| O=C1/C(=C/c2cccc(Cl)c2Cl)N=C(c2ccccc2)N1C1CC1 | 10.3 | 22.3 | – | – | 7.11 | 17.4 | – | – | 12.2 | 26.2 | 12.1 µM | 29.4 | 8.98 | 18.9 | 10.3 | 22.3 | > 50 | 41.4 µM | 13.5 | 15.6 |
| CN(C)CC1CCCC/C1=N/OC(=O)c1ccc(Cl)cc1 (centres undefined) | – | > 100 | – | > 100 | – | > 100 | – | > 100 | – | > 100 | – | – | – | > 100 | – | > 100 | > 100 | > 100 µM | – | – |
| Cc1ccc(NC(=O)CCc2cc(C(C)(C)C)nc(=S)[nH]2)cc1C | – | > 100 | – | > 100 | – | > 100 | – | > 100 | – | > 100 | – | – | – | > 100 | – | > 100 | > 100 | > 100 µM | – | – |
| O=C1C=CC(=O)c2cc3cc(CBr)ccc3cc21 | 9.4 | > 73.9 | 7.31 | > 63.1 | 1.44 | 3.02 | 8.58 µM | 23.4 | 56.9 | > 100 | 2.35 µM | 6.54 | 0.606 | 1.89 | – | – | 6.03 | 0.2 µM | 0.339 | – |
| CCN1CCC(O)(c2ccc(OC)cc2)C(C(=O)c2ccc(OC)cc2)C1 (centres undefined) | – | 41.8 | – | 10.6 | – | 45.1 | – | 29.7 | – | 48 | – | – | – | 52.4 | – | 32.4 | > 100 | 46.9 µM | – | – |
| O=c1ccn([C@H]2CSC[C@@H](CO)C2)c(=O)[nH]1 | – | > 100 | – | > 100 | – | > 100 | – | > 100 | – | > 100 | – | – | – | > 100 | – | > 100 | > 100 | > 100 µM | – | – |
| Nc1c(C(=O)Nc2ccncc2)sc2nc3c(cc12)CCCCCCCC3 | 0.954 | 1.74 | 0.916 | 1.65 | 0.845 | 1.56 | 0.93 µM | 1.75 | 0.948 | 1.74 | 0.944 µM | 1.72 | – | – | 0.878 | 1.6 | – | 2.19 µM | – | 0.948 |
| O=C1/C(=C/c2ccc(Cl)cc2)CCC1CCN1CCOCC1 (centres undefined) | – | > 100 | – | > 100 | – | > 100 | – | > 100 | – | > 100 | – | – | – | > 100 | – | > 100 | > 100 | 85.2 µM | – | – |
| CN1CCOC(c2ccccc2)O1 (centres undefined) | – | > 100 | – | > 100 | – | > 100 | – | > 100 | – | > 100 | – | – | – | > 100 | – | > 100 | > 100 | > 100 µM | – | – |
| COc1ccc(C(=O)/C=C/c2cc(-c3cc(OC)c(OC)c(OC)c3)n[nH]2)cc1OC | 1.82 | 3.96 | 1.78 | 3.34 | 1.38 | 2.76 | 1.84 µM | 3.69 | 1.49 | 2.83 | 0.55 µM | 1.84 | – | – | 1.27 | 2.6 | 7.12 | 4.18 µM | 1.91 | 1.44 |
| COc1cc(NCc2ccc3nc(N)nc(N)c3c2C)cc(OC)c1OC (tested in a mixture with another compound) | – | 66.8 | – | 50.6 | 0.000242 | 38.3 | 0.0222 µM and 0.025 µM | – | 0.00993 | 48.7 | 0.172 µM and 0.025 µM | 38.2 | 0.000185 | 33 | – | – | 46.3 | 29.4 µM and 26.3 µM | 0.000159 | 0.000746 |
| S=c1sc2c(Cl)nc(Cl)nc2n1-c1ccccc1 | – | 23.2 | – | 29 | – | > 100 | – | 43 | – | > 100 | – | – | – | 31.1 | – | > 100 | > 100 | 82.6 µM | – | – |
| COc1ccc2[nH]cc(C3(c4c[nH]c5ccc(OC)cc45)C(=O)Nc4ccc(F)cc43)c2c1 | 3.17 | 12.7 | 2.29 | 6.75 | 1.65 | 3.26 | 2.41 µM | 6.77 | 2.2 | 6.23 | 3.71 µM | 13.1 | 1.76 | 3.16 | 3.24 | 10.5 | 5.78 | – | 2.24 | – |
| CCn1c2ccccc2c2cc(NC(=O)Nc3ccc([N+](=O)[O-])cc3C)ccc21 | 12.2 | > 100 | 5.33 | 26.2 | 4.98 | > 100 | 6.21 µM | 64.1 | 16.6 | 68.7 | 5.38 µM | > 100 | 3.17 | 17.4 | 1.83 | 4.41 | – | 5.85 µM | – | 1.06 |
| OCC1OC(c2nc(C3=NCCCN3)cs2)C(O)C1O (centres undefined) | – | > 100 | – | > 100 | – | > 100 | – | > 100 | – | > 100 | – | – | – | > 100 | – | > 100 | > 100 | > 100 µM | – | – |
| Cc1ccccc1N1C(=O)C2C=CC(n3[nH]c(=O)n(Cc4ccccc4)c3=O)CC2C1=O (centres undefined) | – | > 100 | – | > 100 | – | > 100 | – | > 100 | – | > 100 | – | – | – | > 100 | – | > 100 | > 100 | > 100 µM | – | – |

— PubChem BioAssay (NCI)
